In PubChem BioAssay AID1963825 (Molecular Pharmacology Branch, DTP, NCI, 2024):

assay: Anticancer human tumor 997537-175-T-J1-PDC patient-derived colon adenocarcinoma cell line growth inhibition [POLQ]; details: 997537-175-T-J1-PDC complex spheroid viability, combination with POLQ inhibitors; curve of first compound; second compound 0.0316 µM
Procedure, shortened: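 Three-cell-type spheroids modelling solid tumor plus stroma served as the readout system; POL inhibitors were tested individually and in combination, concentration ranges set by clinical Cmax where known.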
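Further: luminescence signal used as a surrogate for viable cells; spheroids exposed to drugs for seven days before readout.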

SMILES | IC50 [µM]
O=c1[nH]cc(F)c(=O)[nH]1 + Cc1cccc(N(C)C(=O)C2C(O)CCN2c2nc(C)cc(C(F)(F)F)c2C#N)c1 | > 10
CNCc1ccc(-c2[nH]c3cc(F)cc4c3c2CCNC4=O)cc1 + COC1C(OC(N)=O)C(O)C(Oc2ccc3c(O)c(NC(=O)c4ccc(O)c(CC=C(C)C)c4)c(=O)oc3c2C)OC1(C)C | > 10
COc1cccc(OCCCN)c1-c1cc(Nc2cnc(C#N)cn2)n[nH]1 + Cc1cccc(N(C)C(=O)C2C(O)CCN2c2nc(C)cc(C(F)(F)F)c2C#N)c1 | 0.131
C=CC(=O)N1CCN(c2nc(=O)n(-c3c(C)ccnc3C(C)C)c3nc(-c4c(O)cccc4F)c(F)cc23)C(C)C1 (stereo unspecified) + Cc1cccc(N(C)C(=O)C2C(O)CCN2c2nc(C)cc(C(F)(F)F)c2C#N)c1 | > 10

same assay, conditions: 997537-175-T-J1-PDC complex spheroid viability, combination with POLQ inhibitors; curve of first compound; second compound 0.1 µM

SMILES | IC50 [µM]
O=c1[nH]cc(F)c(=O)[nH]1 + Cc1cccc(N(C)C(=O)C2C(O)CCN2c2nc(C)cc(C(F)(F)F)c2C#N)c1 | > 10
CNCc1ccc(-c2[nH]c3cc(F)cc4c3c2CCNC4=O)cc1 + COC1C(OC(N)=O)C(O)C(Oc2ccc3c(O)c(NC(=O)c4ccc(O)c(CC=C(C)C)c4)c(=O)oc3c2C)OC1(C)C | > 10
COc1cccc(OCCCN)c1-c1cc(Nc2cnc(C#N)cn2)n[nH]1 + Cc1cccc(N(C)C(=O)C2C(O)CCN2c2nc(C)cc(C(F)(F)F)c2C#N)c1 | 0.139
C=CC(=O)N1CCN(c2nc(=O)n(-c3c(C)ccnc3C(C)C)c3nc(-c4c(O)cccc4F)c(F)cc23)C(C)C1 (stereo unspecified) + Cc1cccc(N(C)C(=O)C2C(O)CCN2c2nc(C)cc(C(F)(F)F)c2C#N)c1 | > 10

same assay, conditions: 997537-175-T-J1-PDC complex spheroid viability, combination with POLQ inhibitors; curve of first compound; second compound 0.316 µM

SMILES | IC50 [µM]
O=c1[nH]cc(F)c(=O)[nH]1 + Cc1cccc(N(C)C(=O)C2C(O)CCN2c2nc(C)cc(C(F)(F)F)c2C#N)c1 | > 10
CNCc1ccc(-c2[nH]c3cc(F)cc4c3c2CCNC4=O)cc1 + COC1C(OC(N)=O)C(O)C(Oc2ccc3c(O)c(NC(=O)c4ccc(O)c(CC=C(C)C)c4)c(=O)oc3c2C)OC1(C)C | > 10
COc1cccc(OCCCN)c1-c1cc(Nc2cnc(C#N)cn2)n[nH]1 + Cc1cccc(N(C)C(=O)C2C(O)CCN2c2nc(C)cc(C(F)(F)F)c2C#N)c1 | 0.125
C=CC(=O)N1CCN(c2nc(=O)n(-c3c(C)ccnc3C(C)C)c3nc(-c4c(O)cccc4F)c(F)cc23)C(C)C1 (stereo unspecified) + Cc1cccc(N(C)C(=O)C2C(O)CCN2c2nc(C)cc(C(F)(F)F)c2C#N)c1 | > 10

same assay, conditions: 997537-175-T-J1-PDC complex spheroid viability, combination with POLQ inhibitors; curve of first compound; second compound 1 µM

SMILES | IC50 [µM]
O=c1[nH]cc(F)c(=O)[nH]1 + Cc1cccc(N(C)C(=O)C2C(O)CCN2c2nc(C)cc(C(F)(F)F)c2C#N)c1 | > 10
CNCc1ccc(-c2[nH]c3cc(F)cc4c3c2CCNC4=O)cc1 + COC1C(OC(N)=O)C(O)C(Oc2ccc3c(O)c(NC(=O)c4ccc(O)c(CC=C(C)C)c4)c(=O)oc3c2C)OC1(C)C | > 10
COc1cccc(OCCCN)c1-c1cc(Nc2cnc(C#N)cn2)n[nH]1 + Cc1cccc(N(C)C(=O)C2C(O)CCN2c2nc(C)cc(C(F)(F)F)c2C#N)c1 | 0.039
C=CC(=O)N1CCN(c2nc(=O)n(-c3c(C)ccnc3C(C)C)c3nc(-c4c(O)cccc4F)c(F)cc23)C(C)C1 (stereo unspecified) + Cc1cccc(N(C)C(=O)C2C(O)CCN2c2nc(C)cc(C(F)(F)F)c2C#N)c1 | > 10

same assay, conditions: 997537-175-T-J1-PDC complex spheroid viability, combination with POLQ inhibitors; curve of first compound; second compound 3.16 µM

SMILES | IC50 [µM]
O=c1[nH]cc(F)c(=O)[nH]1 + Cc1cccc(N(C)C(=O)C2C(O)CCN2c2nc(C)cc(C(F)(F)F)c2C#N)c1 | > 10
CNCc1ccc(-c2[nH]c3cc(F)cc4c3c2CCNC4=O)cc1 + COC1C(OC(N)=O)C(O)C(Oc2ccc3c(O)c(NC(=O)c4ccc(O)c(CC=C(C)C)c4)c(=O)oc3c2C)OC1(C)C | > 10
COc1cccc(OCCCN)c1-c1cc(Nc2cnc(C#N)cn2)n[nH]1 + Cc1cccc(N(C)C(=O)C2C(O)CCN2c2nc(C)cc(C(F)(F)F)c2C#N)c1 | 0.0237
C=CC(=O)N1CCN(c2nc(=O)n(-c3c(C)ccnc3C(C)C)c3nc(-c4c(O)cccc4F)c(F)cc23)C(C)C1 (stereo unspecified) + Cc1cccc(N(C)C(=O)C2C(O)CCN2c2nc(C)cc(C(F)(F)F)c2C#N)c1 | > 10

same assay, conditions: 997537-175-T-J1-PDC complex spheroid viability, combination with POLQ inhibitors; curve of first compound; second compound 10 µM

SMILES | IC50 [µM]
O=c1[nH]cc(F)c(=O)[nH]1 + Cc1cccc(N(C)C(=O)C2C(O)CCN2c2nc(C)cc(C(F)(F)F)c2C#N)c1 | > 10
